According to patent publication US20240247253A1, “PRODUCTION METHOD OF POLYPEPTIDE, TAG, EXPRESSION VECTOR, EVALUATION METHOD OF POLYPEPTIDE, PRODUCTION METHOD OF NUCLEIC ACID DISPLAY LIBRARY, AND SCREENING METHOD” (FUJIFILM Corporation, priority 2021, published 2024):

Key:
[1] = system: cell-free peptide synthesis system derived from Escherichia coli; assay: Cell-free biosynthesis of the integrin binding peptide fusion protein with N-terminal tag, 1 hour reaction, amount measured by ELISA; type: biochemical; settings: relative value, control example without tag = 1; fusion protein SEQ ID NO: 5; 37° C. for 1 hour; average of two measurements
Source text: In the cell-free peptide synthesis system derived from Escherichia coli, the effect of the VKKX tag on the biosynthesis amount of the polypeptide was examined. As a polypeptide to be biosynthesized, an integrin binding peptide containing cysteine and chloroacetyl lysine was selected. In this polypeptide, a thiol group of cysteine and a chloroacetyl group of chloroacetyl lysine spontaneously form a thioether bond to become a cyclic polypeptide.
A fusion protein in which an integrin binding peptide, a Myc tag, and a HiBiT tag were linked in this order was designed. As a spacer, Gly-Gly-Ser was inserted between the integrin binding peptide and the Myc tag and between the Myc tag and the HiBiT tag. The amino acid sequence of this fusion protein is SEQ ID NO: 5, and the base sequence encoding this fusion protein is SEQ ID NO: 6. In SEQ ID NO: 5, the integrin binding peptide ranges to the amino acid at the twelfth position (that is, alanine) from an N-terminal, and the amino acid at eleventh position from the N-terminal is chloroacetyl lysine. The triplet TAG at the positions 31 to 33 from the 5′ terminal of the base sequence set forth in SEQ ID NO: 6 was assigned to the codon of chloroacetyl lysine. The end of the base sequence set forth in SEQ ID NO: 6 is the stop codon TAA.
A base sequence encoding a tagged fusion protein in which methionine, a VKKX tag (any of SEQ ID nOs: 7 to 52), and a fusion protein (SEQ ID NO: 5) were linked in this order was designed. In this base sequence, a base sequence (any of SEQ ID nOs: 53 to 98) encoding a VKKX tag is arranged immediately after the start codon ATG, and a base sequence encoding a fusion protein immediately after the base sequence (SEQ ID NO: 6) encoding the VKKX tag is arranged.
As a control example for evaluating the effect of the VKKX tag, a base sequence in which a base sequence (SEQ ID NO: 6) encoding a fusion protein arranged immediately after the start codon ATG was designed.
In order to translate chloroacetyl lysine which is an unnatural amino acid, a tRNA in which the anticodon was CUA and paired with the UAG codon of mRNA was prepared. This tRNA was aminoacylated with an N-chloroacetyl lysine hosphoro 2′ deoxyribocytidylylriboadenosine (pdCpA) ester. This aminoacyl tRNA is referred to as an Aminoacyl tRNA (1).
(§1) The cell-free biosynthesis of the polypeptide was carried out in a translation solution containing a template DNA, PUREfrex 2.0 (GeneFrontier, PF201-0.25-5), and Aminoacyl tRNA (1). 1.25 μL (62.5 ng) of the template DNA prepared to 50 ng/μL, 2.5 μL of PUREfrex 2.0 Solution I, 0.25 μL of Solution II, 0.5 μL of Solution III, and 0.5 μL of Aminoacyl tRNA (1) were mixed and mixture was subjected to a reaction at 37° ° C. for 1 hour.
The amount of the biosynthesized polypeptide was measured by ELISA. 50 ng of Recombinant Human Integrin αVβ3 (R&D systems, 3050-AV-050) was immobilized in each well of a 96-well plate and blocked with Blocker Casein in PBS (Thermo, 37528), and then a cell-free biosynthesis solution diluted with Can Get Signal Immunoreaction Enhancer Solution I (TOYOBO, NKB-101) containing 5 mmol/L MgCl2 was added thereto, and the mixture was subjected to a reaction at room temperature for 3 hours. After washing with 5 mmol/L MgCl2/0.05% Tween 20-containing phosphate buffered saline (PBS), an anti-Myc antibody (Cell Signaling, 14038S) diluted with Can Get Signal Immunoreaction Enhancer Solution II (TOYOBO, NKB-101) was added thereto, and the mixture was subjected to a reaction at room temperature for 2 hours. After washing with PBS containing 5 mmol/L MgCl2/0.05% Tween 20, Super Signal ELISA Femto Substrate (Thermo, 37075) was added thereto, and the luminescence was measured. The amount of the fusion protein in the cell-free biosynthesis solution was calculated based on a calibration curve created from the fusion protein having a known concentration. The luminescence measurement was performed twice, and the average value of the amounts of the fusion protein was calculated. […]

[2] = system: cell-free peptide synthesis system derived from Escherichia coli; assay: Cell-free biosynthesis of the integrin binding peptide fusion protein with tag, reaction time 10 minutes, ELISA; type: biochemical; settings: relative value, control without tag = 1; reaction time 10 minutes; fusion protein SEQ ID NO: 5; SKIK encoded by SEQ ID NO: 110
Description: as §1
The amount of the biosynthesized polypeptide was measured by ELISA. 50 ng of Recombinant Human Integrin αVβ3 (R&D systems, 3050-AV-050) was immobilized in each well of a 96-well plate and blocked with Blocker Casein in PBS (Thermo, 37528), and then a cell-free biosynthesis solution diluted with Can Get Signal Immunoreaction Enhancer Solution I (TOYOBO, NKB-101) containing 5 mmol/L MgCl2 was added thereto, and the mixture was subjected to a reaction at room temperature for 3 hours. After washing with 5 mmol/L MgCl2/0.05% Tween 20-containing phosphate buffered saline (PBS), an anti-Myc antibody (Cell Signaling, 14038S) diluted with Can Get Signal Immunoreaction Enhancer Solution II (TOYOBO, NKB-101) was added thereto, and the mixture was subjected to a reaction at room temperature for 2 hours. After washing with PBS containing 5 mmol/L MgCl2/0.05% Tween 20, Super Signal ELISA Femto Substrate (Thermo, 37075) was added thereto, and the luminescence was measured. The amount of the fusion protein in the cell-free biosynthesis solution was calculated based on a calibration curve created from the fusion protein having a known concentration. The luminescence measurement was performed twice, and the average value of the amounts of the fusion protein was calculated. Table 2-1 and Table 2-2 show relative values of the biosynthesis amounts of respective fusion proteins in a case where the amount of the fusion protein of the control example was set to the reference value 1.
As a comparative control, a SKIK tag represented by SEQ ID NO: 107 was selected. The polypeptide to be biosynthesized is the fusion protein containing the integrin binding peptide, as in Example 1.
Using a template DNA including DNA sequences (SEQ ID NOs: 73 to 98) encoding VKKX tags represented by SEQ ID NOs: 27 to 52 produced in Example 1, and a DNA sequence (SEQ ID NO: 110) encoding a SKIK tag represented by SEQ ID NO: 107 produced in Example 2, the biosynthesis reaction was performed in the same manner as in Example 1 by setting the reaction time to 10 minutes. In the same manner in Example 1, the fusion protein was expressed by the cell-free peptide synthesis system and quantified by ELISA. The measurement was performed twice, and the average value of the amounts of the fusion protein was calculated. […] As control example used in Example 1, the control example of the reference value 1 has a form in which the base sequence (SEQ ID NO: 6) encoding the fusion protein is arranged immediately after the start codon ATG.

| Substance | Biosynthesis amount of fusion protein [1] | Biosynthesis amount of fusion protein [2] |
| --- | --- | --- |
| SEQ ID NO: 7: VKKX tag, amino acid sequence VKKI (VKKX Tag) | 4.40 |  |
| SEQ ID NO: 8: VKKX tag, amino acid sequence VKKK (VKKX Tag) | 6.15 |  |
| SEQ ID NO: 9: VKKX tag, amino acid sequence VKKT (VKKX Tag) | 5.66 |  |
| SEQ ID NO: 10: VKKX tag, amino acid sequence VKKR (VKKX Tag) | 5.75 |  |
| SEQ ID NO: 11: VKKX tag, amino acid sequence VKKS (VKKX Tag) | 6.05 |  |
| SEQ ID NO: 12: VKKX tag, amino acid sequence VKKH (VKKX Tag) | 5.82 |  |
| SEQ ID NO: 13: VKKX tag, amino acid sequence VKKM (VKKX Tag) | 1.94 |  |
| SEQ ID NO: 14: VKKX tag, amino acid sequence VKKP (VKKX Tag) | 2.23 |  |
| SEQ ID NO: 15: VKKX tag, amino acid sequence VKKG (VKKX Tag) | 2.39 |  |
| SEQ ID NO: 16: VKKX tag, amino acid sequence VKKL (VKKX Tag) | 2.71 |  |
| SEQ ID NO: 17: VKKX tag, amino acid sequence VKKV (VKKX Tag) | 2.90 |  |
| SEQ ID NO: 18: VKKX tag, amino acid sequence VKKE (VKKX Tag) | 2.94 |  |
| SEQ ID NO: 19: VKKX tag, amino acid sequence VKKA (VKKX Tag) | 3.01 |  |
| SEQ ID NO: 20: VKKX tag, amino acid sequence VKKD (VKKX Tag) | 3.05 |  |
| SEQ ID NO: 21: VKKX tag, amino acid sequence VKKC (VKKX Tag) | 3.14 |  |
| SEQ ID NO: 22: VKKX tag, amino acid sequence VKKN (VKKX Tag) | 3.17 |  |
| SEQ ID NO: 23: VKKX tag, amino acid sequence VKKY (VKKX Tag) | 3.30 |  |
| SEQ ID NO: 24: VKKX tag, amino acid sequence VKKQ (VKKX Tag) | 3.52 |  |
| SEQ ID NO: 25: VKKX tag, amino acid sequence VKKW (VKKX Tag) | 3.52 |  |

| Substance | Biosynthesis amount of fusion protein [1] | Biosynthesis amount of fusion protein [2] |
| --- | --- | --- |
| SEQ ID NO: 26: VKKX tag, amino acid sequence VKKF (VKKX Tag) | 3.69 |  |
| SEQ ID NO: 28: VKKX tag, amino acid sequence VKKTKTT (VKKX Tag) | 6.28 | 16.65 |
| SEQ ID NO: 29: VKKX tag, amino acid sequence VKKTKTD (VKKX Tag) | 6.09 | 15.90 |
| SEQ ID NO: 30: VKKX tag, amino acid sequence VKKTKTKK (VKKX Tag) | 9.01 | 24.42 |
| SEQ ID NO: 31: VKKX tag, amino acid sequence VKKTKTKT (VKKX Tag) | 9.08 | 15.48 |
| SEQ ID NO: 32: VKKX tag, amino acid sequence VKKTKTKD (VKKX Tag) | 8.04 | 20.56 |
| SEQ ID NO: 33: VKKX tag, amino acid sequence VKKTKTTK (VKKX Tag) | 6.54 | 8.17 |
| SEQ ID NO: 34: VKKX tag, amino acid sequence VKKTKTTT (VKKX Tag) | 6.69 | 8.59 |
| SEQ ID NO: 35: VKKX tag, amino acid sequence VKKTKTDD (VKKX Tag) | 5.75 | 8.49 |
| SEQ ID NO: 36: VKKX tag, amino acid sequence VKKTKTKKT (VKKX Tag) | 10.50 | 13.13 |
| SEQ ID NO: 37: VKKX tag, amino acid sequence VKKTKTKKD (VKKX Tag) | 11.45 | 19.84 |
| SEQ ID NO: 38: VKKX tag, amino acid sequence VKKTKTKTK (VKKX Tag) | 8.42 | 16.95 |
| SEQ ID NO: 39: VKKX tag, amino acid sequence VKKTKTKTT (VKKX Tag) | 7.22 | 7.57 |
| SEQ ID NO: 40: VKKX tag, amino acid sequence VKKTKTKDK (VKKX Tag) | 8.49 | 10.77 |
| SEQ ID NO: 41: VKKX tag, amino acid sequence VKKTKTKDT (VKKX Tag) | 6.27 | 28.80 |
| SEQ ID NO: 42: VKKX tag, amino acid sequence VKKTKTKDD (VKKX Tag) | 5.35 | 14.95 |
| SEQ ID NO: 43: VKKX tag, amino acid sequence VKKTKTTKK (VKKX Tag) | 9.45 | 23.35 |
| SEQ ID NO: 44: VKKX tag, amino acid sequence VKKTKTTKT (VKKX Tag) | 7.83 | 7.18 |
